Key:
Experiment in all cases: biochemical
Type in all cases: binding
[1] = target: PB2 CDlp7028 H3N2 (Influenza A virus, UniProt P31345)
[2] = target: PB2 CDlp7007 H3N2 (Influenza A virus, UniProt P31345)
[3] = target: PB2 (Influenza A virus, UniProt P03428)
[4] = target: PB2 CDlp7026 H1N1 (Influenza A virus, UniProt P03428)
Sequence of PB2 CDlp7026 H1N1 (P03428 whole entry, looked up): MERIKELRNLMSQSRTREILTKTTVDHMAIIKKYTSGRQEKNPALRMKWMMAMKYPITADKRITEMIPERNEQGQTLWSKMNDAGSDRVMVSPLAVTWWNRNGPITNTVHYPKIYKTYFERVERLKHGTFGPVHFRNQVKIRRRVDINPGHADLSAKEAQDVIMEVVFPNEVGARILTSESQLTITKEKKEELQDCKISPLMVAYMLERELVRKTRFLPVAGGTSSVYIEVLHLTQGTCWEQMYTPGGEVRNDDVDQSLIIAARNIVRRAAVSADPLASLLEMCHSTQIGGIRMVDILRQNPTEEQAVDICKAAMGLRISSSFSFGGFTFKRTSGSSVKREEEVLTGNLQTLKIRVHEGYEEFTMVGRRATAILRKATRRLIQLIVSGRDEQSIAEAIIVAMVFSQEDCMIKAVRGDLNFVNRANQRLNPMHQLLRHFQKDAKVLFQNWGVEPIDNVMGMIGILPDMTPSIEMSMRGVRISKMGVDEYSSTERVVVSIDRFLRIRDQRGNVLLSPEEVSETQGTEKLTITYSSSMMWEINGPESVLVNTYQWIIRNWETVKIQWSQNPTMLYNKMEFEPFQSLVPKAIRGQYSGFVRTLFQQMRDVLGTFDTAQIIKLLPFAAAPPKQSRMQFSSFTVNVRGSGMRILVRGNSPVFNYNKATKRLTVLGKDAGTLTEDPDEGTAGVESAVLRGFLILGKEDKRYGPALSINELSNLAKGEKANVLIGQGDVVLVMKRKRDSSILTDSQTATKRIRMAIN

Sequence of PB2 CDlp7028 H3N2 (P31345 whole entry, looked up): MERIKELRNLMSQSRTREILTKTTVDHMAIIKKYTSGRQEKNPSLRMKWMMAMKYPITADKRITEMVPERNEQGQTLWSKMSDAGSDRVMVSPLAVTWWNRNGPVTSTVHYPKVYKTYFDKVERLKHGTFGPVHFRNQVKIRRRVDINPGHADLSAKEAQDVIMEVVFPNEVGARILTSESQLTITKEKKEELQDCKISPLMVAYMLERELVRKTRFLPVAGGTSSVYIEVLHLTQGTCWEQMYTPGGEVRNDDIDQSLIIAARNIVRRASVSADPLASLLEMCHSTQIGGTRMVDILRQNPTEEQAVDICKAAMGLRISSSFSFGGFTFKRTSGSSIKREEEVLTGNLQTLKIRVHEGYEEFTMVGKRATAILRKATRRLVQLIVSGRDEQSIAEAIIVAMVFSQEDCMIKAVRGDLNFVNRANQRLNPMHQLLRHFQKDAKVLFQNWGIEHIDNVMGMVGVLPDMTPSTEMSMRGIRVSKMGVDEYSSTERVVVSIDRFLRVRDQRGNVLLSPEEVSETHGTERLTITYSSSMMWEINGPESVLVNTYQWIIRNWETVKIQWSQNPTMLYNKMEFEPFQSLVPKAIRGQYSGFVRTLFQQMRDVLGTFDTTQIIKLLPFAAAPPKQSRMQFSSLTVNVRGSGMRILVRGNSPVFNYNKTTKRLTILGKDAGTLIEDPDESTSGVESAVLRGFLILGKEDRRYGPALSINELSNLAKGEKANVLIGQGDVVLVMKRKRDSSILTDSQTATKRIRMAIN
Sequence of PB2 CDlp7007 H3N2 (P31345 whole entry, looked up): as above
Sequence of PB2 (P03428 whole entry, looked up): as the sequence (P03428 whole entry, looked up) above

For `CCOCCOCCOCCN(C)C(=O)N[C@@H]1CCC[C@H](Nc2nc(-c3c[nH]c4ncc(F)cc34)ncc2F)C1` [Compound A165], the IC50 [1] was 50 to 100 µM and the IC50 [2] was 50 to 100 µM.
`CCOCCOCCOCC(=O)N1CCC[C@H](Nc2nc(-c3c[nH]c4ncc(F)cc34)ncc2F)C1` [Compound C2] was tested, and the IC50 [1] was 5 to 25 µM and the IC50 [2] was 5 to 25 µM.
Compound `CCOCCOCCCCCN(C)C(=O)N[C@@H]1CCC[C@H](Nc2nc(-c3c[nH]c4ncc(F)cc34)ncc2F)C1` [Compound A181] has an IC50 [1] of 25 to 50 µM and an IC50 [2] of 50 to 100 µM.
`CCOCCOCCOCCNC(=O)N[C@@H]1CCC[C@H](Nc2nc(-c3c[nH]c4ncc(F)cc34)ncc2F)C1` [Compound A164] showed an EC50 [3] of 25 to 50 µM and an IC50 [2] of 25 to 50 µM.
Work on `CCNC(=O)OCc1ccnc(C(=O)N[C@@H]2CCC[C@H](Nc3nc(-c4c[nH]c5ncc(F)cc45)ncc3F)C2)c1` [Compound A70] yielded an IC50 [4] of 5 to 25 µM, an IC50 [1] of under 5 µM and an EC50 [3] of under 5 µM. The IC50 [2] was 5 to 25 µM.
Work on `CCOCCOCCCCC(=O)N[C@@H]1CCC[C@H](Nc2nc(-c3c[nH]c4ncc(F)cc34)ncc2F)C1` [Compound A270] yielded an IC50 [1] of over 100 µM and an IC50 [2] of over 100 µM.
For `O=C(COCCOCCOCCO)N1CCC[C@H](Nc2nc(-c3c[nH]c4ncc(F)cc34)ncc2F)C1` [Compound C1], the IC50 [1] was 5 to 25 µM and the IC50 [2] was 5 to 25 µM.

Reference: patent US12357631B2 (priority 2018, dated 2025)
